US20100047294A1, “SEMI-FINISHED PRODUCT IN THE MANUFACTURE OF A COMPOSITION FOR SKIN OR HAIR CARE” (OY GRANULA AB LTD, priority 2006, published 2010)
Where two headings read alike, the source gives them in different places.

How the values were obtained:
[1] = Ability to capture free radicals (statements in words)
[2] = extracts from knot wood of the tree trunk; compared with Trolox; lower value = better capture; cited from earlier work

Row | Compound | Capture of peroxyl radicals in vitro [2] | other results
1 | COc1cc(C[C@H]2C(=O)OC[C@@H]2[C@H](O)c2ccc(O)c(OC)c2)ccc1O [hydroxymatairesinol] | 179 g/mol | ability to capture free radicals, in words [1]: relatively good in capturing the free radicals
2 | Oc1ccc([C@H]2Oc3c(ccc(O)c3O)[C@@H](O)[C@H]2O)cc1O [melacasidine] | 50 g/mol | –
3 | COc1cc(C[C@H]2CO[C@H](c3ccc(O)c(OC)c3)[C@H]2CO)ccc1O [lariciresinol] | 370 g/mol | –
4 | COc1cc(CC2COC(=O)C2(O)Cc2ccc(O)c(OC)c2)ccc1O (centres unmarked) [nortrachelogenin] | 169 g/mol | –
5 | COc1cc(C[C@H]2COC(=O)C2C(=O)c2ccc(O)c(OC)c2)ccc1O (some centres unmarked) [7-oxomatairesinol] | – | ability to capture free radicals, in words [1]: even better than that of hydroxymatairesinol; ability to capture free radicals, in words ([1]; listed as Oxomatairesinol): comparable to that of hydroxymatairesinol or even better; ability to capture free radicals, in words ([1]; listed as oxomatairesinol): relatively good in capturing the free radicals
6 | pinoresinol | 129 g/mol | –
7 | COc1cc(C[C@@H](CO)[C@H](CO)Cc2ccc(O)c(OC)c2)ccc1O [secoisolariciresinol] | – | ability to capture free radicals, in words [1]: relatively good in capturing the free radicals
8 | COc1cc([C@H]2c3cc(O)c(OC)cc3C[C@@H](CO)[C@@H]2CO)ccc1O [cyclolariciresinol] | 118 g/mol | –
9 | Oc1ccc([C@H]2Oc3c(ccc(O)c3O)[C@@H](O)[C@H]2O)cc1 [teracasidine] | 128 g/mol | –
10 | Cc1c(C)c2c(c(C)c1O)CCC(C)(C(=O)O)O2 (centres unmarked) [trolox, reference compound] | 125 g/mol | –
11 | COc1cc(C[C@H]2COC(=O)[C@@H]2Cc2ccc(O)c(OC)c2)ccc1O [matairesinol] | 345 g/mol | –
